From patent publication US6525001B1, “Substituted pyrimidine and pyridine herbicides” (Mid-American Commercialization Corporation, priority 1997, dated 2003)

Experiments:
Format in all cases: in vivo
[1] = tested on: cocklebur (Xanthium strumarium); assay: Test C; design: key: 0 was no effect; 100 was complete control; conditions: PREEMERGENCE
[2] = tested on: hairy beggarticks (Bidens pilosa); assay: Test C; design: key: 0 was no effect; 100 was complete control; conditions: PREEMERGENCE
[3] = tested on: soybean (Glycine max); assay: Test C; design: key: 0 was no effect; 100 was complete control; conditions: PREEMERGENCE
[4] = tested on: wild poinsettia (Euphorbia heterophylla); assay: Test C; design: key: 0 was no effect; 100 was complete control; conditions: PREEMERGENCE
[5] = tested on: purple nutsedge (Cyperus rotundus); assay: Test E pre-/postemergence/post directed; design: key: 0 is no injury; 100 is complete control
Excerpt: (§1) Seeds, tubers, or plant parts of alexandergrass (Brachiaria plantaginea), annual bluegrass (Poa annua), arrowleaf sida (Sida rhombifolia), barnyardgrass (Echinochloa crus-galli), bermudagrass (Cynodon dactylon), citrus (Citrus sinensis), common chickweed (Stellaria media), common purslane (Portulaca oleracea), common ragweed (Ambrosia elatior), common groundsel (Senecio vulgaris), dallisgrass (Paspalum dilatatum), goosegrass (Eleusine indica), green foxtail (Setaria viridis), guineagrass (Panicum maximum), itchgrass (Rottboellia exaltata), johnson grass (Sorghum halepense), kochia (Kochia scoparia), large crabgrass (Digitaria sanguinalis), leafy spurge (Euphorbia esula), pitted morningglory (Ipomoea lacunosa), purple nutsedge (Cyperus rotundus), quackgrass (Agropyron repens), Russian thistle (Salsola kali), sandbur (Cenchrus echinatus), sourgrass (Trichachne insularis), Spanishneedles (Bidens bipinnata), sugarcane (Saccharum officinarum), surinam grass (Brachiaria decumbens) and tall mallow (Malva sylvestris) were planted into greenhouse pots of flats containing greenhouse planting medium. Plant species were grown grown in separate pots or individual compartments. Preemergence applications were made within one day of planting the seed or plant part. Postemergence applications were applied when the plants were in the two to four leaf stage (three to twenty cm).
(§2) Test chemicals were formulated in a non-phytotoxic solvent mixture which included a surfactant and applied preemergence to the soil surface, postemergence to the plants or as a post directed spray to plants and soil at the base of the target species. Untreated control plants and treated plants were placed in the greenhouse and visually evaluated for injury 13 to 21 days after herbicide application. Plant response ratings, summarized in Table E, are based on a 0 to 100 scale where 0 is no injury and 100 is complete control. A dash (−) response means no test result.

[6] = tested on: Spanishneedles (Bidens bipinnata); assay: Test E pre-/postemergence/post directed
Excerpt: as §1, §2

[7] = tested on: alexandergrass (Brachiaria plantaginea); assay: Test E pre-/postemergence/post directed
Excerpt: as §1, §2

[8] = tested on: bermudagrass (Cynodon dactylon); assay: Test E pre-/postemergence/post directed; conditions: POSTEMERGENCE, Rate 250 g/ha
Excerpt: as §1, §2

[9] = tested on: common ragweed (Ambrosia elatior); assay: Test E pre-/postemergence/post directed
Excerpt: as §1, §2

[10] = tested on: johnson grass (Sorghum halepense); assay: Test E pre-/postemergence/post directed
Excerpt: as §1, §2

[11] = tested on: large crabgrass (Digitaria sanguinalis); assay: Test E pre-/postemergence/post directed; conditions: POSTEMERGENCE, Rate 250 g/ha
Excerpt: as §1, §2

[12] = tested on: sandbur (Cenchrus echinatus); assay: Test E pre-/postemergence/post directed
Excerpt: as §1, §2

[13] = tested on: bermudagrass (Cynodon dactylon); assay: Test E pre-/postemergence/post directed; design: key: 0 is no effect; 100 is complete control; conditions: PREEMERGENCE
Outline: (§3)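 Greenhouse pots; compound in non-phytotoxic solvent with surfactant, sprayed preemergence within one day of planting, postemergence at two to four leaf stage (three to twenty cm), or post directed to plant base and soil. Visual injury rated 13 to 21 days after application, 0 (none) to 100 (complete control).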

[14] = tested on: common groundsel (Senecio vulgaris); assay: Test E pre-/postemergence/post directed; design: key: 0 is no effect; 100 is complete control; conditions: PREEMERGENCE
Outline: as §3

[15] = tested on: common ragweed (Ambrosia elatior); assay: Test E pre-/postemergence/post directed; design: key: 0 is no effect; 100 is complete control; conditions: PREEMERGENCE
Outline: as §3

[16] = tested on: goosegrass (Eleusine indica); assay: Test E pre-/postemergence/post directed; design: key: 0 is no effect; 100 is complete control
Outline: as §3

[17] = tested on: large crabgrass (Digitaria sanguinalis); assay: Test E pre-/postemergence/post directed; design: key: 0 is no effect; 100 is complete control; conditions: PREEMERGENCE
Outline: as §3

[18] = tested on: sourgrass (Trichachne insularis); assay: Test E pre-/postemergence/post directed; design: key: 0 is no effect; 100 is complete control
Outline: as §3

[19] = tested on: surinam grass (Brachiaria decumbens); assay: Test E pre-/postemergence/post directed; design: key: 0 is no effect; 100 is complete control; conditions: PREEMERGENCE, Rate 250 g/ha
Outline: as §3

Cc1cnc(-c2ccc(C(F)(F)F)cc2)nc1Cc1cccc(C(F)(F)F)c1 [Example 1, 5-methyl-2-[4-(trifluoromethyl)phenyl]-4-[[3-(trifluoromethyl)phenyl]methyl]pyrimidine]
Plant response rating, Cocklebur ([1]; Rate 35 g/ha): 0
Plant response rating, Cocklebur ([1]; Rate 70 g/ha): 0
Plant response rating, Cocklebur ([1]; Rate 140 g/ha): 0
Plant response rating, H. beggarticks ([2]; Rate 35 g/ha): 20
Plant response rating, H. beggarticks ([2]; Rate 70 g/ha): 100
Plant response rating, H. beggarticks ([2]; Rate 140 g/ha): 100
Plant response rating, Soybean ([3]; Rate 35 g/ha): 0
Plant response rating, Soybean ([3]; Rate 70 g/ha): 0
Plant response rating, Soybean ([3]; Rate 140 g/ha): 0
Plant response rating, Wild poinsettia ([4]; Rate 35 g/ha): 0
Plant response rating, Wild poinsettia ([4]; Rate 70 g/ha): 10
Plant response rating, Wild poinsettia ([4]; Rate 140 g/ha): 50
Plant response rating, Purple nutsedge ([5]; POSTEMERGENCE, Rate 250 g/ha): 0
Plant response rating, Purple nutsedge ([5]; PREEMERGENCE, Rate 32 g/ha): 0
Plant response rating, Purple nutsedge ([5]; PREEMERGENCE, Rate 64 g/ha): 0
Plant response rating, Purple nutsedge ([5]; PREEMERGENCE, Rate 125 g/ha): 0
Plant response rating, Purple nutsedge ([5]; PREEMERGENCE, Rate 250 g/ha): 50
Plant response rating, Spanishneedles ([6]; POSTEMERGENCE, Rate 250 g/ha): 10
Plant response rating, Spanishneedles ([6]; PREEMERGENCE, Rate 32 g/ha): 40
Plant response rating, Spanishneedles ([6]; PREEMERGENCE, Rate 64 g/ha): 80
Plant response rating, Spanishneedles ([6]; PREEMERGENCE, Rate 125 g/ha): 90
Plant response rating, Alexandergrass ([7]; POSTEMERGENCE, Rate 250 g/ha): 90
Plant response rating, Alexandergrass ([7]; PREEMERGENCE, Rate 32 g/ha): 10
Plant response rating, Alexandergrass ([7]; PREEMERGENCE, Rate 64 g/ha): 75
Plant response rating, Alexandergrass ([7]; PREEMERGENCE, Rate 125 g/ha): 90
Plant response rating, Bermudagrass [8]: 30
Plant response rating, Com. ragweed ([9]; POSTEMERGENCE, Rate 250 g/ha): 70
Plant response rating, Com. ragweed ([9]; PREEMERGENCE, Rate 32 g/ha): 90
Plant response rating, Johnsongrass ([10]; POSTEMERGENCE, Rate 250 g/ha): 90
Plant response rating, Johnsongrass ([10]; PREEMERGENCE, Rate 32 g/ha): 5
Plant response rating, Johnsongrass ([10]; PREEMERGENCE, Rate 64 g/ha): 40
Plant response rating, Johnsongrass ([10]; PREEMERGENCE, Rate 125 g/ha): 90
Plant response rating, Large crabgrass [11]: 85
Plant response rating, Sandbur ([12]; POSTEMERGENCE, Rate 250 g/ha): 10
Plant response rating, Sandbur ([12]; PREEMERGENCE, Rate 32 g/ha): 20
Plant response rating, Sandbur ([12]; PREEMERGENCE, Rate 64 g/ha): 65
Plant response rating, Sandbur ([12]; PREEMERGENCE, Rate 125 g/ha): 95
Plant response rating, Bermudagrass ([13]; Rate 32 g/ha): 100
Plant response rating, Bermudagrass ([13]; Rate 64 g/ha): 100
Plant response rating, Bermudagrass ([13]; Rate 125 g/ha): 100
Plant response rating, Bermudagrass ([13]; Rate 250 g/ha): 100
Plant response rating, Com. groundsel ([14]; Rate 64 g/ha): 100
Plant response rating, Com. groundsel ([14]; Rate 125 g/ha): 100
Plant response rating, Com. groundsel ([14]; Rate 250 g/ha): 100
Plant response rating, Com. ragweed ([15]; Rate 64 g/ha): 100
Plant response rating, Com. ragweed ([15]; Rate 125 g/ha): 100
Plant response rating, Com. ragweed ([15]; Rate 250 g/ha): 100
Plant response rating, Goosegrass ([16]; POSTEMERGENCE, Rate 250 g/ha): 70
Plant response rating, Goosegrass ([16]; PREEMERGENCE, Rate 32 g/ha): 100
Plant response rating, Goosegrass ([16]; PREEMERGENCE, Rate 64 g/ha): 100
Plant response rating, Goosegrass ([16]; PREEMERGENCE, Rate 125 g/ha): 100
Plant response rating, Goosegrass ([16]; PREEMERGENCE, Rate 250 g/ha): 100
Plant response rating, Large crabgrass ([17]; Rate 32 g/ha): 100
Plant response rating, Large crabgrass ([17]; Rate 64 g/ha): 100
Plant response rating, Large crabgrass ([17]; Rate 125 g/ha): 100
Plant response rating, Large crabgrass ([17]; Rate 250 g/ha): 100
Plant response rating, Sourgrass ([18]; POSTEMERGENCE, Rate 250 g/ha): 30
Plant response rating, Sourgrass ([18]; PREEMERGENCE, Rate 32 g/ha): 100
Plant response rating, Sourgrass ([18]; PREEMERGENCE, Rate 64 g/ha): 100
Plant response rating, Sourgrass ([18]; PREEMERGENCE, Rate 125 g/ha): 100
Plant response rating, Sourgrass ([18]; PREEMERGENCE, Rate 250 g/ha): 100
Plant response rating, Surinam grass [19]: 100
